Assay results as given in PubChem BioAssay AID330 (DTP/NCI, 2004).
“And” between values parts separate entries of the source, which are not always exact repeats. Equal values may be shown once. Inconclusive results and toxic doses are left out.

System: P388 leukemia ip, CD2F1 mice, survival T/C
Assay: NCI In Vivo Anticancer Drug Screen. Data for tumor model P388 Leukemia (intraperitoneal) in CD2F1 (CDF1) mice
Details: endpoint: median survival time, higher = longer survival
Procedure, shortened: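 Mice carrying the transplanted tumor received test compound or vehicle. Survival was recorded in each group, and the value is the treated-group measurement divided by that of the vehicle-treated control group.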

[1] = dose: 0.5 mg/kg/injection, schedule: Q01DX009 (ip), vehicle: Klucel (hydroxypropylcellulose) (HPC)
[2] = dose: 1.0 mg/kg/injection, schedule: Q01DX009 (ip), vehicle: Klucel (hydroxypropylcellulose) (HPC)
[3] = dose: 2.0 mg/kg/injection, schedule: Q01DX009 (ip), vehicle: Klucel (hydroxypropylcellulose) (HPC)
[4] = dose: 4.0 mg/kg/injection, schedule: Q01DX009 (ip), vehicle: Klucel (hydroxypropylcellulose) (HPC)
[5] = dose: 8.0 mg/kg/injection, schedule: Q01DX009 (ip), vehicle: Klucel (hydroxypropylcellulose) (HPC)
[6] = dose: 50.0 mg/kg/injection, schedule: Q01DX009 (ip), vehicle: Klucel (hydroxypropylcellulose) (HPC)
[7] = dose: 100.0 mg/kg/injection, schedule: Q01DX009 (ip), vehicle: Klucel (hydroxypropylcellulose) (HPC)
[8] = dose: 200.0 mg/kg/injection, schedule: Q01DX009 (ip), vehicle: Klucel (hydroxypropylcellulose) (HPC)
[9] = dose: 60.0 mg/kg/injection, schedule: Q01DX005 (ip), vehicle: saline with Tween-80
[10] = dose: 120.0 mg/kg/injection, schedule: Q01DX005 (ip), vehicle: saline with Tween-80
[11] = dose: 240.0 mg/kg/injection, schedule: Q01DX005 (ip), vehicle: saline with Tween-80
[12] = dose: 50.0 mg/kg/injection, schedule: Q01DX009 (ip), vehicle: saline with Tween-80
[13] = dose: 100.0 mg/kg/injection, schedule: Q01DX009 (ip), vehicle: saline with Tween-80
[14] = dose: 200.0 mg/kg/injection, schedule: Q01DX009 (ip), vehicle: saline with Tween-80
[15] = dose: 50.0 mg/kg/injection, schedule: Q01DX005 (ip), vehicle: saline
[16] = dose: 100.0 mg/kg/injection, schedule: Q01DX005 (ip), vehicle: saline
[17] = dose: 25.0 mg/kg/injection, schedule: Q04DX003 (ip), vehicle: saline with Tween-80

## COc1c(Cc2ccccc2O)c(O)cc(O)c1C(=O)CCc1ccccc1
dose: 0.25 mg/kg/injection, schedule: Q01DX009 (ip), vehicle: Klucel (hydroxypropylcellulose) (HPC)
  T/C: 100 % of control
[1]
  T/C: 101 % of control
[2]
  T/C: 107 % of control
[3]
  T/C: 113 % of control
[4]
  T/C: 104 % of control
[5]
  T/C: 100 % of control
dose: 16.0 mg/kg/injection, schedule: Q01DX009 (ip), vehicle: Klucel (hydroxypropylcellulose) (HPC)
  T/C: 96 % of control
dose: 32.0 mg/kg/injection, schedule: Q01DX009 (ip), vehicle: Klucel (hydroxypropylcellulose) (HPC)
  T/C: 100 % of control

## C[C@@]12C(=O)OC(=O)[C@]1(C)[C@H]1CC[C@@H]2O1
dose: 0.5 mg/kg/injection, schedule: Q01DX005 (ip), vehicle: acetone
  T/C: 105 % of control
dose: 62.5 micrograms/kg/injection, schedule: Q01DX005 (ip), vehicle: acetone
  T/C: 102 % of control
dose: 125.0 micrograms/kg/injection, schedule: Q01DX005 (ip), vehicle: acetone
  T/C: 107 % of control
dose: 250.0 micrograms/kg/injection, schedule: Q01DX005 (ip), vehicle: acetone
  T/C: 102 % of control
dose: 500.0 micrograms/kg/injection, schedule: Q01DX005 (ip), vehicle: acetone
  T/C: 102 % of control

## [CH2-]N(CC)CC.[CH2-]N(CC)CC.[Rh].[Rh].[Rh].[c-]1[c-][c-][cH-][c-]1.[c-]1[c-][c-][cH-][c-]1.[c-]1[c-][c-][cH-][c-]1
dose: 6.25 mg/kg/injection, schedule: Q04DX002 (ip), vehicle: saline
  T/C: 108 % of control and 96 % of control
dose: 12.5 mg/kg/injection, schedule: Q04DX002 (ip), vehicle: saline
  T/C: 113 % of control and 115 % of control and 91 % of control
dose: 25.0 mg/kg/injection, schedule: Q04DX002 (ip), vehicle: saline
  T/C: 99 % of control and 103 % of control and 113 % of control
dose: 50.0 mg/kg/injection, schedule: Q04DX002 (ip), vehicle: saline
  T/C: 104 % of control and 91 % of control

## ClC1=CCCC(C(Br)Br)C1 (stereo unspecified)
[6]
  T/C: 99 % of control
[7]
  T/C: 100 % of control
[8]
  T/C: 102 % of control

## CN1CCN(CC(O)Cn2c(=O)c3c(nc(N4CCN(C)CC4)n3C)n(C)c2=O)CC1 (stereo unspecified)
[6]
  T/C: 87 % of control
[7]
  T/C: 102 % of control
[8]
  T/C: 105 % of control

## COc1ccc(OC)c(NC(=O)CCCC(=O)CC(=O)c2cccnc2)c1
[9]
  T/C: 103 % of control
[10]
  T/C: 103 % of control
[11]
  T/C: 101 % of control

## [N-]=[N+]=Nc1ccnc2cc(Cl)ccc12
[9]
  T/C: 108 % of control
[10]
  T/C: 100 % of control
[11]
  T/C: 104 % of control

## CC(C)C[N+]1(Cc2ccc(Cl)c(Cl)c2)CCOCC1
dose: 100.0 mg/kg/injection, schedule: Q04DX002 (ip), vehicle: saline with Tween-80
  T/C: 99 % of control
dose: 200.0 mg/kg/injection, schedule: Q04DX002 (ip), vehicle: saline with Tween-80
  T/C: 108 % of control

## O=C1NNC(=O)c2ccccc2C(=O)S1
[9]
  T/C: 102 % of control
[10]
  T/C: 101 % of control
[11]
  T/C: 97 % of control

## Nc1ncnc2c1nnn2C1OC(CO)C(O)C1O (stereo unspecified)
[6]
  T/C: 157 % of control
[7]
  T/C: 100 % of control

## CN(C)c1ccc(/C=C2\SC(=S)N(CCCN3CCOCC3)C2=O)cc1
[12]
  T/C: 91 % of control
[13]
  T/C: 90 % of control
[14]
  T/C: 87 % of control

## CC(=O)N1CCCC2=C1CCC2
dose: 25.0 mg/kg/injection, schedule: Q04DX003 (ip), vehicle: saline
  T/C: 104 % of control
dose: 50.0 mg/kg/injection, schedule: Q04DX003 (ip), vehicle: saline
  T/C: 100 % of control
dose: 100.0 mg/kg/injection, schedule: Q04DX003 (ip), vehicle: saline
  T/C: 94 % of control and 97 % of control

## CN1NC(c2ccccc2)NN(C)C1=O
[15]
  T/C: 97 % of control
[16]
  T/C: 99 % of control
dose: 200.0 mg/kg/injection, schedule: Q01DX005 (ip), vehicle: saline
  T/C: 106 % of control

## CCC(=N)C(c1ccccc1)(c1ccccc1)C(C)CN(C)C (stereo unspecified)
dose: 15.0 mg/kg/injection, schedule: Q01DX005 (ip), vehicle: saline
  T/C: 101 % of control
dose: 30.0 mg/kg/injection, schedule: Q01DX005 (ip), vehicle: saline
  T/C: 101 % of control
dose: 60.0 mg/kg/injection, schedule: Q01DX005 (ip), vehicle: saline
  T/C: 100 % of control

## O=C1c2ccccc2-c2cc3ccccc3c(=O)n21
[9]
  T/C: 95 % of control
[10]
  T/C: 91 % of control
[11]
  T/C: 89 % of control

## CC1(C)OC2OC3C(Br)C(=O)OC3C2O1 (stereo unspecified)
[9]
  T/C: 90 % of control
[10]
  T/C: 94 % of control
[11]
  T/C: 97 % of control

## CC1(C)C(=O)CCC2(C)C1CC(=O)C1(C)C2CCC2(C)C(c3ccoc3)OC(=O)C3OC321 (stereo unspecified)
[1]
  T/C: 100 % of control and 102 % of control
[2]
  T/C: 102 % of control
[3]
  T/C: 92 % of control and 96 % of control
[4]
  T/C: 98 % of control and 93 % of control
[5]
  T/C: 98 % of control and 86 % of control

## CCN(CC)CCNc1cc(OC)c(C)c2cccnc12
[15]
  T/C: 104 % of control
[16]
  T/C: 109 % of control

## O=C1CC2CCC(C1)N2C(=O)Oc1ccccc1
dose: 100.0 mg/kg/injection, schedule: Q01DX001 (ip), vehicle: Klucel (hydroxypropylcellulose) (HPC)
  T/C: 101 % of control
dose: 200.0 mg/kg/injection, schedule: Q01DX001 (ip), vehicle: Klucel (hydroxypropylcellulose) (HPC)
  T/C: 93 % of control
dose: 400.0 mg/kg/injection, schedule: Q01DX001 (ip), vehicle: Klucel (hydroxypropylcellulose) (HPC)
  T/C: 92 % of control

## O=C1CC(c2ccc(Cl)cc2Cl)Oc2ccc(Cl)cc21 (stereo unspecified)
dose: 6.25 mg/kg/injection, schedule: Q01DX009 (ip), vehicle: saline with Tween-80
  T/C: 95 % of control
dose: 12.5 mg/kg/injection, schedule: Q01DX009 (ip), vehicle: saline with Tween-80
  T/C: 96 % of control
dose: 25.0 mg/kg/injection, schedule: Q01DX009 (ip), vehicle: saline with Tween-80
  T/C: 95 % of control
[12]
  T/C: 89 % of control
[13]
  T/C: 87 % of control and 90 % of control
[14]
  T/C: 90 % of control
dose: 400.0 mg/kg/injection, schedule: Q01DX009 (ip), vehicle: saline with Tween-80
  T/C: 96 % of control

## Cc1cc2c(C(C)C)c(O)c(O)cc2c(O)c1-c1c(C)cc2c(C(C)C)c(O)c(O)cc2c1O
dose: 12.5 mg/kg/injection, schedule: Q04DX003 (ip), vehicle: saline with Tween-80
  T/C: 95 % of control
[17]
  T/C: 100 % of control
dose: 50.0 mg/kg/injection, schedule: Q04DX003 (ip), vehicle: saline with Tween-80
  T/C: 104 % of control

## CC(C)C(NC(=O)OCC[P+](c1ccccc1)(c1ccccc1)c1ccccc1)C(=O)O (stereo unspecified)
[12]
  T/C: 116 % of control
[13]
  T/C: 103 % of control
[14]
  T/C: 91 % of control

## CCCCCC/C(CC(SCC)c1ccccc1Cl)=N\NC(N)=S (stereo unspecified)
[9]
  T/C: 91 % of control
[10]
  T/C: 96 % of control
[11]
  T/C: 91 % of control

## COC(=O)c1nnn(-c2cc(Cl)ccc2Cl)c1C(=O)c1ccc(OC)cc1
[9]
  T/C: 95 % of control
[10]
  T/C: 100 % of control
[11]
  T/C: 89 % of control

## O=C1NC(=O)C2(CCC(O)C2)c2ccncc21 (stereo unspecified)
dose: 0.12 mg/kg/injection, schedule: Q01DX009 (ip), vehicle: saline + Tween-80 + alcohol
  T/C: 103 % of control
dose: 0.25 mg/kg/injection, schedule: Q01DX009 (ip), vehicle: saline + Tween-80 + alcohol
  T/C: 100 % of control
dose: 0.5 mg/kg/injection, schedule: Q01DX009 (ip), vehicle: saline + Tween-80 + alcohol
  T/C: 103 % of control
dose: 1.0 mg/kg/injection, schedule: Q01DX009 (ip), vehicle: saline + Tween-80 + alcohol
  T/C: 100 % of control and 120 % of control
dose: 1.4 mg/kg/injection, schedule: Q01DX009 (ip), vehicle: saline + Tween-80 + alcohol
  T/C: 117 % of control

## C=CCC1CCSC1=O (stereo unspecified)
[17]
  T/C: 109 % of control

## CCCC(C)c1ccc(OCc2ccc(C)cc2)cc1 (stereo unspecified)
[12]
  T/C: 114 % of control
[13]
  T/C: 91 % of control
[14]
  T/C: 95 % of control

## O=C1c2ccccc2C(=O)c2c(NCCC3CCCN4CCCCC34)cccc21 (stereo unspecified)
dose: 50.0 mg/kg/injection, schedule: Q01DX005 (ip), vehicle: Klucel (hydroxypropylcellulose) (HPC)
  T/C: 94 % of control
dose: 100.0 mg/kg/injection, schedule: Q01DX005 (ip), vehicle: Klucel (hydroxypropylcellulose) (HPC)
  T/C: 97 % of control
dose: 200.0 mg/kg/injection, schedule: Q01DX005 (ip), vehicle: Klucel (hydroxypropylcellulose) (HPC)
  T/C: 96 % of control

## Cc1nc(N(C)C)oc(=O)c1Cc1ccccc1
[9]
  T/C: 102 % of control
[10]
  T/C: 100 % of control
[11]
  T/C: 100 % of control

## O=C1OC2=C(CCCc3ccccc32)C(N(c2ccccc2)c2ccccc2)C1(Cl)Cl (stereo unspecified)
[6]
  T/C: 96 % of control
[7]
  T/C: 88 % of control
[8]
  T/C: 89 % of control
